Reference: patent US8952024B2, “Herbicidal pyrimidone derivatives” (E I du Pont de Nemours and Company, priority 2009, dated 2015)

How the values were obtained:
Assay type in all cases: in vivo
[1] = tested on: goosegrass (Eleusine indica); assay: Test B pre-/postemergence plant response; details: Preemergence, 62 g ai/ha; scale 0 to 100, 0 no effect, 100 complete control
[2] = tested on: pigweed (Amaranthus retroflexus); assay: Test B pre-/postemergence plant response
Procedure, shortened: (§1)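 Steps: sow seed in loam–sand soil and spray preemergence, or grow plants in peat-based medium to 1–4 leaves (2–18 cm) and spray postemergence; formulation is non-phytotoxic solvent plus surfactant; hold in greenhouse 13–15 days; score visually vs controls, 0 = no effect, 100 = complete control.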

[3] = tested on: nightshade (eastern black nightshade, Solanum ptycanthum); assay: Test B pre-/postemergence plant response; details: Preemergence; for Nightshade plant response rating: 125 g ai/ha
Procedure, shortened: as §1

[4] = tested on: galium (catchweed bedstraw, Galium aparine); assay: Test B pre-/postemergence plant response; details: Preemergence; for Galium plant response rating: 125 g ai/ha
Procedure, shortened: as §1

wild oat (Avena fatua) = assay: Test B pre-/postemergence plant response
Procedure, shortened: as §1

[5] = tested on: sunflower (common oilseed sunflower, Helianthus annuus); assay: Test B pre-/postemergence plant response; details: Preemergence; for Sunflower plant response rating: 125 g ai/ha
Procedure, shortened: as §1

rice (Oryza sativa) = assay: Test B flooded paddy test; details: for Plant response rating, Flood, Rice: 250 g ai/ha, flooded paddy test, visual rating on 0 to 100 scale (0 no effect, 100 complete control) after 13 to 15 days; for Plant response rating, Rice: Flood (flooded paddy test), 13 to 15 days
Procedure, shortened: (§2)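 Post-flood paddy application: compounds are introduced into water 3 cm deep over the soil, reaching plants at the 2-leaf stage. The water level is maintained, and after 13–15 days under greenhouse conditions, response is judged by eye relative to controls, where 100 means complete control.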

[6] = tested on: ducksalad (Heteranthera limosa); assay: Test B flooded paddy test; details: for Plant response rating, Flood, Ducksalad: 250 g ai/ha, flooded paddy test, visual rating on 0 to 100 scale (0 no effect, 100 complete control) after 13 to 15 days; for Plant response rating, Ducksalad: Flood (flooded paddy test), 13 to 15 days
Procedure, shortened: as §2

[7] = tested on: barnyardgrass (Echinochloa crus-galli); assay: Test B flooded paddy test; details: for Plant response rating, Flood, Barnyardgrass: 250 g ai/ha, flooded paddy test, visual rating on 0 to 100 scale (0 no effect, 100 complete control) after 13 to 15 days; for Plant response rating, Barnyardgrass: Flood (flooded paddy test), 13 to 15 days
Procedure, shortened: as §2

[8] = tested on: umbrella sedge (Cyperus difformis); assay: Test B flooded paddy test; details: for Plant response rating, Flood, Sedge, Umbrella: 250 g ai/ha, flooded paddy test, visual rating on 0 to 100 scale (0 no effect, 100 complete control) after 13 to 15 days; for Plant response rating, Sedge, Umbrella: Flood (flooded paddy test), 13 to 15 days
Procedure, shortened: as §2

[9] = tested on: windgrass (Apera spica-venti); assay: Test B postemergence plant response; details: Postemergence, scale 0 (no effect) to 100 (complete control)
Procedure, shortened: (§3)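 Plants grown in peat/vermiculite medium were sprayed postemergence at 2–18 cm height (1- to 4-leaf stage). After 13–15 days in the greenhouse, response was rated visually against untreated controls on a 0–100 scale (0 no effect, 100 complete control).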

[10] = tested on: winter barley (Hordeum vulgare); assay: Test B postemergence plant response; details: Postemergence; for Barley plant response rating: 250 g ai/ha, scale 0 to 100
Procedure, shortened: as §3

[11] = tested on: canarygrass (Phalaris minor); assay: Test B postemergence plant response; details: Postemergence; for Canarygrass plant response rating: 250 g ai/ha, scale 0 to 100
Procedure, shortened: as §3

[12] = tested on: chickweed (Stellaria media); assay: Test B postemergence plant response; details: Postemergence; for Chickweed plant response rating: 250 g ai/ha, scale 0 to 100
Procedure, shortened: as §3

[13] = 250 g ai/ha, Preemergence, 0 to 100 scale
[14] = Postemergence, 62 g ai/ha, scale 0 (no effect) to 100 (complete control), 13 to 15 days
[15] = Postemergence, 125 g ai/ha, visual rating after 13 to 15 days, scale 0 (no effect) to 100 (complete control)
[16] = Preemergence, 31 g ai/ha, scale 0 to 100 (0 no effect, 100 complete control)
[17] = Preemergence, 62 g ai/ha, scale 0 to 100, 0 no effect, 100 complete control
[18] = Preemergence, 125 g ai/ha, 0 to 100 scale
[19] = 31 g ai/ha, scale 0 to 100 (0 no effect, 100 complete control)
[20] = 62 g ai/ha, scale 0 to 100, 0 no effect, 100 complete control
[21] = 31 g ai/ha, scale of 0 to 100 where 0 is no effect and 100 is complete control
[22] = 62 g ai/ha, scale 0 to 100, 0 is no effect, 100 is complete control
[23] = 125 g ai/ha, scale 0 to 100, 0 is no effect, 100 is complete control
[24] = 125 g ai/ha, visual rating after 13 to 15 days
[25] = 62 g ai/ha, scale 0 (no effect) to 100 (complete control), 13 to 15 days
[26] = 125 g ai/ha, visual rating after 13 to 15 days, scale 0 (no effect) to 100 (complete control)

Structure (SMILES): O=C1CCCC(O)=C1C(=O)c1cnc(-c2cccc(Cl)c2)n(-c2ccccc2)c1=O [Compound 34]
- Plant response rating, Goosegrass [1]: 100
- Plant response rating, Pigweed [2, 13]: 100
- Plant response rating, Pigweed [2, 14]: 90
- Plant response rating, Pigweed [2, 15]: 98
- Plant response rating, Pigweed [2, 16]: 100
- Plant response rating, Pigweed [2, 17]: 100
- Pigweed plant response rating [2, 18]: 100
- Plant response rating, Nightshade ([3]; 250 g ai/ha, 0 to 100 scale): 100
- Plant response rating, Nightshade [3, 19]: 55
- Plant response rating, Nightshade [3, 20]: 95
- Nightshade plant response rating ([3]; 0 to 100 scale): 100
- Plant response rating, Galium ([4]; 250 g ai/ha, 0 to 100 scale): 98
- Plant response rating, Galium [4, 19]: 10
- Plant response rating, Galium [4, 20]: 50
- Galium plant response rating ([4]; 0 to 100 scale): 90
- Plant response rating, Oat, Wild (wild oat (Avena fatua); [13]): 60
- Plant response rating, Oat, Wild (wild oat (Avena fatua); [14]): 50
- Plant response rating, Oat, Wild (wild oat (Avena fatua); [15]): 60
- Plant response rating, Oat, Wild (wild oat (Avena fatua); [16]): 10
- Plant response rating, Oat, Wild (wild oat (Avena fatua); [17]): 10
- Oat, Wild plant response rating (wild oat (Avena fatua); [18]): 30
- Plant response rating, Sunflower ([5]; 250 g ai/ha, 0 to 100 scale): 90
- Plant response rating, Sunflower [5, 19]: 55
- Plant response rating, Sunflower [5, 20]: 70
- Sunflower plant response rating ([5]; 0 to 100 scale): 80
- Plant response rating, Flood, Rice (rice (Oryza sativa)): 0
- Plant response rating, Rice (rice (Oryza sativa); [21]): 0
- Plant response rating, Rice (rice (Oryza sativa); [22]): 0
- Plant response rating, Rice (rice (Oryza sativa); [23]): 0
- Plant response rating, Flood, Ducksalad [6]: 65
- Plant response rating, Ducksalad [6, 21]: 0
- Plant response rating, Ducksalad [6, 22]: 0
- Plant response rating, Ducksalad [6, 23]: 30
- Plant response rating, Flood, Barnyardgrass [7]: 0
- Plant response rating, Barnyardgrass [7, 21]: 0
- Plant response rating, Barnyardgrass [7, 22]: 0
- Plant response rating, Barnyardgrass [7, 23]: 0
- Plant response rating, Flood, Sedge, Umbrella [8]: 40
- Plant response rating, Sedge, Umbrella [8, 21]: 0
- Plant response rating, Sedge, Umbrella [8, 22]: 0
- Plant response rating, Sedge, Umbrella [8, 23]: 0
- Plant response rating, Windgrass ([9]; 62 g ai/ha, 13 to 15 days): 40
- Plant response rating, Windgrass [9, 24]: 50
- Plant response rating, Barley [10, 19]: 0
- Plant response rating, Barley [10, 25]: 30
- Plant response rating, Barley [10, 26]: 30
- Barley plant response rating [10]: 30
- Plant response rating, Canarygrass [11, 19]: 5
- Plant response rating, Canarygrass [11, 25]: 50
- Plant response rating, Canarygrass [11, 26]: 50
- Canarygrass plant response rating [11]: 50
- Plant response rating, Chickweed [12, 19]: 50
- Plant response rating, Chickweed [12, 25]: 75
- Plant response rating, Chickweed [12, 26]: 98
- Chickweed plant response rating [12]: 100

Structure (SMILES): O=C1CCCC(O)=C1C(=O)c1cnc(-c2ccccc2)n(-c2ccccc2Br)c1=O [Compound 37]
- Plant response rating, Goosegrass [1]: 0
- Plant response rating, Pigweed [2, 13]: 100
- Plant response rating, Pigweed [2, 14]: 85
- Plant response rating, Pigweed [2, 15]: 98
- Plant response rating, Pigweed [2, 16]: 100
- Pigweed plant response rating [2, 18]: 100
- Plant response rating, Nightshade ([3]; 250 g ai/ha, 0 to 100 scale): 85
- Plant response rating, Nightshade [3, 19]: 0
- Plant response rating, Nightshade [3, 20]: 40
- Nightshade plant response rating ([3]; 0 to 100 scale): 80
- Plant response rating, Galium ([4]; 250 g ai/ha, 0 to 100 scale): 100
- Plant response rating, Galium [4, 19]: 0
- Plant response rating, Galium [4, 20]: 10
- Galium plant response rating ([4]; 0 to 100 scale): 30
- Plant response rating, Oat, Wild (wild oat (Avena fatua); [13]): 10
- Plant response rating, Oat, Wild (wild oat (Avena fatua); [14]): 10
- Plant response rating, Oat, Wild (wild oat (Avena fatua); [15]): 40
- Plant response rating, Oat, Wild (wild oat (Avena fatua); [16]): 0
- Oat, Wild plant response rating (wild oat (Avena fatua); [18]): 0
- Plant response rating, Sunflower ([5]; 250 g ai/ha, 0 to 100 scale): 90
- Plant response rating, Sunflower [5, 19]: 0
- Sunflower plant response rating ([5]; 0 to 100 scale): 45
- Plant response rating, Flood, Rice (rice (Oryza sativa)): 20
- Plant response rating, Rice (rice (Oryza sativa); [21]): 0
- Plant response rating, Rice (rice (Oryza sativa); [22]): 0
- Plant response rating, Rice (rice (Oryza sativa); [23]): 0
- Plant response rating, Flood, Ducksalad [6]: 60
- Plant response rating, Ducksalad [6, 21]: 0
- Plant response rating, Ducksalad [6, 22]: 30
- Plant response rating, Ducksalad [6, 23]: 50
- Plant response rating, Flood, Barnyardgrass [7]: 0
- Plant response rating, Barnyardgrass [7, 21]: 0
- Plant response rating, Barnyardgrass [7, 22]: 0
- Plant response rating, Barnyardgrass [7, 23]: 0
- Plant response rating, Flood, Sedge, Umbrella [8]: 40
- Plant response rating, Sedge, Umbrella [8, 21]: 0
- Plant response rating, Sedge, Umbrella [8, 22]: 20
- Plant response rating, Sedge, Umbrella [8, 23]: 30
- Plant response rating, Windgrass ([9]; 62 g ai/ha, 13 to 15 days): 30
- Plant response rating, Windgrass [9, 24]: 50
- Plant response rating, Barley [10, 19]: 0
- Plant response rating, Barley [10, 25]: 0
- Plant response rating, Barley [10, 26]: 0
- Barley plant response rating [10]: 0
- Plant response rating, Canarygrass [11, 19]: 0
- Plant response rating, Canarygrass [11, 25]: 5
- Plant response rating, Canarygrass [11, 26]: 10
- Canarygrass plant response rating [11]: 30
- Plant response rating, Chickweed [12, 19]: 80
- Plant response rating, Chickweed [12, 25]: 80
- Plant response rating, Chickweed [12, 26]: 85
- Chickweed plant response rating [12]: 100
